Measurements taken from ChEMBL document CHEMBL4330128, “Discovery of two novel branched peptidomimetics containing endomorphin-2 and RF9 pharmacophores: Synthesis and neuropharmacological evaluation” (Bioorg Med Chem, 2019).
Activity calls are given as the source filed them. The calls are words filed in the database; no cut-off is given here. Where a SMILES comes first, the peptide text is derived from it. Side-chain parts run from the residue outwards. The star is where a group is joined. Adamantane1carbonyl = O=C(C12CC3CC(CC(C3)C1)C2)*

Experiments:
[1] = target: Delta-type opioid receptor (Homo sapiens, UniProt P41143); assay: Agonist activity at delta-opioid receptor (unknown origin) expressed in HEK293A cells assessed as inhibition of forskolin-induced cAMP accumulation measured after 30 mins; type: functional, cell-based
Delta-type opioid receptor, sequence (P41143 whole entry): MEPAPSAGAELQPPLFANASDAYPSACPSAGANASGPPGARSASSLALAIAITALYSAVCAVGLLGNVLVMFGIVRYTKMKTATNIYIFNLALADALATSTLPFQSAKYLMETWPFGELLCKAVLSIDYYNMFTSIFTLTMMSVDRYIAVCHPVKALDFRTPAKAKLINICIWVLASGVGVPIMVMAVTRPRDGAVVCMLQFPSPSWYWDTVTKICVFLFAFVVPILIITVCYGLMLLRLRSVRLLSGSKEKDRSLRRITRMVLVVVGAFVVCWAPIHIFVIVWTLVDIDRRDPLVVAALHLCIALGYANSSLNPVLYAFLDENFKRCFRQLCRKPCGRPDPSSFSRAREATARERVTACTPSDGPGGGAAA

Mus musculus [2] = assay: Antiallodynic activity in carrageenan-induced Kunming mouse model of mechanical hyperalgesia administered as intrathecal injection after 10 to 90 mins in presence of NPFF receptor antagonist RF9 by Von Frey filament assay; type: functional, organism-based
[3] = target: T1, Neuropeptide FF receptor 2 (Homo sapiens, UniProt Q9Y5X5); assay: Agonist activity at NPFF2 receptor (unknown origin) expressed in HEK293A cells assessed as inhibition of forskolin-stimulated cAMP accumulation measured after 30 mins relative to NPFF; type: functional, cell-based
T1 sequence (Q9Y5X5 whole entry): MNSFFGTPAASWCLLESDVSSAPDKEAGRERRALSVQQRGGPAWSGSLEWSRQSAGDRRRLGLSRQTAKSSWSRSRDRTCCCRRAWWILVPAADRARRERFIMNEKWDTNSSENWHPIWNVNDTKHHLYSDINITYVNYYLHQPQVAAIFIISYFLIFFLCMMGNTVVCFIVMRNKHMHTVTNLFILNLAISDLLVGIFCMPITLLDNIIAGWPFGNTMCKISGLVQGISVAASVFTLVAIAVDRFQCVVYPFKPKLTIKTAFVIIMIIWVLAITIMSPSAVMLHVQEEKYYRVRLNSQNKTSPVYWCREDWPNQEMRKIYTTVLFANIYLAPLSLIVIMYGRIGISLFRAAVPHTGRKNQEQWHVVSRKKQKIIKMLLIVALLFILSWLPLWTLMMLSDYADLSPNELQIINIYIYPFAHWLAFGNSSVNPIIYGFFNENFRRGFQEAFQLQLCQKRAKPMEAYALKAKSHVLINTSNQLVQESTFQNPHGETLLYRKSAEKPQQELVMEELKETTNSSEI

Mus musculus [4] = assay: Antinociceptive activity in Kunming mouse model of thermal-induced nociception assessed as increase in latency to tail withdrawal at 20 nmol, icv measured up to 60 mins in presence of kappa-opioid receptor antagonist nor-BNI by tail flick test; type: functional, organism-based
[5] = Toxicity in Kunming mouse assessed as impairment of motor coordination at 20 nmol, it measured after 10 to 40 mins by rotarod test; details: in vivo, icv_or_intrathecal
Mus musculus [6] = assay: Antinociceptive activity in Kunming mouse model of thermal-induced nociception assessed as increase in latency to tail withdrawal at 20 nmol, icv measured up to 60 mins in presence of delta-opioid receptor antagonist naltrindole by tail flick test; type: functional, organism-based
Mus musculus [7] = assay: Antiallodynic activity in carrageenan-induced Kunming mouse model of mechanical hyperalgesia administered as intrathecal injection after 10 to 90 mins by Von Frey filament assay; type: functional
[8] = Toxicity in Kunming mouse assessed as inhibition of gastrointestinal transit by measuring reduction in distance traveled by charcoal at 10 mg/kg, ip dosed 15 mins prior charcoal meal measured after 30 mins; type: organism-based; details: in vivo, 0.5 h
Mus musculus [9] = assay: Antiallodynic activity in carrageenan-induced Kunming mouse model of mechanical hyperalgesia administered as intrathecal injection after 10 to 90 mins in presence of opioid receptor antagonist naloxone by Von Frey filament assay; type: functional, organism-based
[10] = target: T1, Neuropeptide FF receptor 2; assay: Agonist activity at NPFF2 receptor (unknown origin) expressed in HEK293A cells assessed as inhibition of forskolin-stimulated cAMP accumulation measured after 30 mins; type: functional, cell-based
[11] = target: T1, Neuropeptide FF receptor 2; assay: Antagonist activity at NPFF2 receptor (unknown origin) expressed in HEK293A cells assessed as reversal of […] induced inhibition of forskolin-stimulated cAMP accumulation measured after 30 mins; type: functional, cell-based
Mu-type opioid receptor = Mu-type opioid receptor (Homo sapiens, UniProt P35372); assay: Agonist activity at mu-opioid receptor (unknown origin) expressed in HEK293A cells assessed as inhibition of forskolin-induced cAMP accumulation measured after 30 mins; type: functional, cell-based
Mu-type opioid receptor, sequence (P35372 whole entry): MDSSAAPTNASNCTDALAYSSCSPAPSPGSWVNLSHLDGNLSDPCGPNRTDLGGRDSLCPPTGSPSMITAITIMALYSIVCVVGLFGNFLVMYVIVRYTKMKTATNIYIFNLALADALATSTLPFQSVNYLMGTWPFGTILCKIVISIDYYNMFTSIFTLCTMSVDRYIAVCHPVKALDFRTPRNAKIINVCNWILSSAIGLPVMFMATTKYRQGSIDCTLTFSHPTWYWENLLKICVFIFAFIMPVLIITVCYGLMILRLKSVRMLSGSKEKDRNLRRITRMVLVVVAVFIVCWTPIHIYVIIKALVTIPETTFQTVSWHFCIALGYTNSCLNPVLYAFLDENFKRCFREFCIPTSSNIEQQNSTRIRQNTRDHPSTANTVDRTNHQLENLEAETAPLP

N2a = assay: Effect on neurite outgrowth in mouse Neuro2a cells at 10 uM after 18 hrs by phase contrast microscopic analysis relative to control; type: cell-based
[12] = target: Kappa-type opioid receptor (Homo sapiens) (UniProt P41145)
Kappa-type opioid receptor (Homo sapiens), sequence (P41145 whole entry): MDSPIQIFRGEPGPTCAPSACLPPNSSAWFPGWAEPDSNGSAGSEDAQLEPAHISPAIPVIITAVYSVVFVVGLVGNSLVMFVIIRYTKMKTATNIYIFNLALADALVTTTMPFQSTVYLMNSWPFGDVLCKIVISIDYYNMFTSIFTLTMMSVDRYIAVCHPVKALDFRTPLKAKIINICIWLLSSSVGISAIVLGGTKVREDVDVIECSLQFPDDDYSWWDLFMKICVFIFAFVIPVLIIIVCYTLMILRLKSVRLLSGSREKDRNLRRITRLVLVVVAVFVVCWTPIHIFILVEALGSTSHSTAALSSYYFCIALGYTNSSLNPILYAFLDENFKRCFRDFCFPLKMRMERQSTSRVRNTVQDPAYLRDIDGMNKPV
Description: Agonist activity at kappa-opioid receptor (unknown origin) expressed in HEK293A cells assessed as inhibition of forskolin-induced cAMP accumulation measured after 30 mins

Mus musculus [13] = assay: Antinociceptive activity in Kunming mouse model of thermal-induced nociception assessed as increase in latency to tail withdrawal at 20 nmol, icv measured up to 60 mins in presence of opioid receptor antagonist naloxone by tail flick test; type: functional, organism-based
Mus musculus [14] = assay: Antinociceptive activity in Kunming mouse model of thermal-induced nociception assessed as increase in latency to tail withdrawal at 20 nmol, icv measured up to 60 mins in presence of mu-opioid receptor antagonist beta-FNA by tail flick test; type: functional, organism-based
[15] = target: T2, Neuropeptide FF receptor 1 (Homo sapiens, UniProt Q9GZQ6); assay: Agonist activity at NPFF1 receptor (unknown origin) expressed in HEK293A cells assessed as inhibition of forskolin-stimulated cAMP accumulation measured after 30 mins; type: functional, cell-based
T2 sequence (Q9GZQ6 whole entry): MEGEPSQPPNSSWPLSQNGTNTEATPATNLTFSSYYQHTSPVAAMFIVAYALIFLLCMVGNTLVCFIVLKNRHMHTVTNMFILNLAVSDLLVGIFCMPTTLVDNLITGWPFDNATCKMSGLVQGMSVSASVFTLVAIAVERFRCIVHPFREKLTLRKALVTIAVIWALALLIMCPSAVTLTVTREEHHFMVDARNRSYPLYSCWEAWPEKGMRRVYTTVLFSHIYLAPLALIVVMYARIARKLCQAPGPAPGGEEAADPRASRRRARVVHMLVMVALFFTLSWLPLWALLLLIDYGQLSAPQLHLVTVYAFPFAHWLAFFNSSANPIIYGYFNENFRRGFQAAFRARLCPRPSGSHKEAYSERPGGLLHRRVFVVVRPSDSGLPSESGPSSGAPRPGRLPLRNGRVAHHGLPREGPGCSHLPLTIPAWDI

Mus musculus [16] = assay: Antinociceptive activity in icv dosed Kunming mouse model of thermal-induced nociception assessed as increase in latency to tail withdrawal by tail flick test; type: functional
Mus musculus [17] = assay: Antinociceptive activity in Kunming mouse model of thermal-induced nociception assessed as increase in latency to tail withdrawal at 2 to 4 nmol, icv administered once daily for 8 days measured daily at 30 mins post dose in presence of NPFF receptor antagonist RF9 by tail flick test; type: functional, organism-based
Mus musculus [18] = assay: Antinociceptive activity in Kunming mouse model of thermal-induced nociception assessed as increase in latency to tail withdrawal at 10 nmol, icv measured up to 60 mins in presence of NPFF receptor antagonist RF9 by tail flick test; type: functional, organism-based
[19] = target: Neuropeptide FF receptor 2 (Mus musculus) (UniProt Q924H0); assay: Antagonist activity at NPFF2 receptor in mouse Neuro2a cells assessed as inhibition of NPFF-induced neurite outgrowth by measuring neurite outgrowth at 10 uM after 18 hrs by phase contrast microscopic analysis (reference value: 24.05 +/- 1.19%); type: cell-based; parameters: scale not given: the % may be the effect or the level left
Neuropeptide FF receptor 2 (Mus musculus), sequence (Q924H0 whole entry): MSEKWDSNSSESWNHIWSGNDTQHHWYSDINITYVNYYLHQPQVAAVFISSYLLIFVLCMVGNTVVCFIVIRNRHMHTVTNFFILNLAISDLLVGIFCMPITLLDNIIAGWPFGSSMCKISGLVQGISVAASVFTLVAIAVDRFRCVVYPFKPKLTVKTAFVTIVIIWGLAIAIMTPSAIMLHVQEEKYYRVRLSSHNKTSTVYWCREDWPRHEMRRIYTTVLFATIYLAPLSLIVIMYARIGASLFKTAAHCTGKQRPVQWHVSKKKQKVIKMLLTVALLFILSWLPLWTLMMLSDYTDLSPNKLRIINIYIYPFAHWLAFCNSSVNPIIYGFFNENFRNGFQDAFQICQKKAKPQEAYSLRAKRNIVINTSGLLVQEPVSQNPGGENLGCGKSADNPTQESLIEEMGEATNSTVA

[20] = Toxicity in Kunming mouse assessed as inhibition of gastrointestinal transit by measuring reduction in distance traveled by charcoal at 5 to 20 nmol, icv dosed 15 mins prior charcoal meal measured after 30 mins; type: organism-based; details: in vivo, icv_or_intrathecal, 0.5 h
Mus musculus [21] = assay: Antinociceptive activity in Kunming mouse model of thermal-induced nociception assessed as increase in latency to tail withdrawal at 10 to 20 nmol, icv administered once daily for 5 to 8 days measured daily at 30 mins post dose by tail flick test; type: functional, organism-based
[22] = target: T2, Neuropeptide FF receptor 1; assay: Antagonist activity at NPFF1 receptor (unknown origin) expressed in HEK293A cells assessed as reversal of […] induced inhibition of forskolin-stimulated cAMP accumulation measured after 30 mins; type: functional, cell-based
[23] = Toxicity in Kunming mouse assessed as impairment of motor coordination at 20 nmol, icv measured after 10 to 40 mins by rotarod test; details: in vivo, icv_or_intrathecal
Mus musculus [24] = assay: Antinociceptive activity in Kunming mouse model of thermal-induced nociception assessed as increase in latency to tail withdrawal at 10 nmol, icv measured up to 60 mins by tail flick test; type: functional, organism-based
Mus musculus [25] = assay: Antinociceptive activity in Kunming mouse model of thermal-induced nociception assessed as increase in latency to tail withdrawal at 2 nmol, icv administered once daily for 8 days measured daily at 30 mins post dose by tail flick test relative to control; type: functional
Mus musculus [26] = assay: Antinociceptive activity in Kunming mouse model of thermal-induced nociception assessed as increase in latency to tail withdrawal at 2 to 4 nmol, icv administered once daily for 8 days measured on days 6 to 8 at 30 mins post dose in presence of NPFF receptor antagonist RF9 by tail flick test; type: functional, organism-based
Mus musculus [27] = assay: Antinociceptive activity in Kunming mouse model of thermal-induced nociception assessed as increase in latency to tail withdrawal at 2 to 4 nmol, icv administered once daily for 5 days measured daily at 30 mins post dose by tail flick test; type: functional, organism-based
Mus musculus [28] = assay: Antinociceptive activity in Kunming mouse model of thermal-induced nociception assessed as increase in latency to tail withdrawal at 4 nmol, icv administered once daily for 8 days measured daily at 30 mins post dose by tail flick test relative to control; type: functional
[29] = Toxicity in Kunming mouse assessed as inhibition of gastrointestinal transit by measuring reduction in distance traveled by charcoal at 10 to 30 mg/kg, ip dosed 15 mins prior charcoal meal measured after 30 mins; type: organism-based; details: in vivo, 0.5 h
Mus musculus [30] = assay: Antinociceptive activity in icv dosed Kunming mouse model of thermal-induced nociception assessed as increase in latency to tail withdrawal up to 60 mins radiant heat tail flick method; type: functional
Mus musculus [31] = assay: Antinociceptive activity in Kunming mouse model of thermal-induced nociception assessed as increase in latency to tail withdrawal at 5 nmol, icv measured up to 60 mins by tail flick test; type: functional, organism-based

N=C(N)NCCC[C@H](NC(=O)C12CC3CC(CC(C3)C1)C2)C(=O)N[C@@H](Cc1ccccc1)C(=O)N[C@@H](CCCCNC(=O)[C@H](Cc1ccccc1)NC(=O)[C@H](Cc1ccccc1)NC(=O)[C@@H]1CCCN1C(=O)[C@@H](N)Cc1ccc(O)cc1)C(N)=O
Emax [1]: inactive | pEC50 [1]: inactive | Activity (Mus musculus [2]): inactive | Emax [3]: 60% | Activity (Mus musculus [4]): Active | Activity [5]: Non-Toxic | Activity (Mus musculus [6]): Active | Activity (Mus musculus [7]): Dose-dependent effect | ED50 (Mus musculus [7]): 8.16 nmol | Activity [8]: Non-Toxic | Activity (Mus musculus [9]): inactive | EC50 [10]: 250 nM | Emax [10]: 31.3% | inhibition [10]: Dose-dependent effect | IC50 [11]: 190 nM | EC50 (Mu-type opioid receptor): 1900 nM | Emax (Mu-type opioid receptor): 62% | Activity (N2a): 12.71% | pEC50 [12]: inactive | Activity (Mus musculus [13]): inactive | Activity (Mus musculus [14]): inactive | Emax [15]: inactive | pEC50 [15]: inactive | ED50 (Mus musculus [16]): 4.8 nmol | Activity (Mus musculus [17]): Active | Activity (Mus musculus [18]): Active | Activity [19]: 14.1% | Activity [20]: Non-Toxic | Activity (Mus musculus [21]): Active | IC50 [22]: 190 nM | inhibition [22]: Dose-dependent effect | Activity [23]: Non-Toxic

Oc1ccc2c3c1O[C@H]1c4[nH]c5ccccc5c4C[C@@]4(O)[C@@H](C2)N(CC2CC2)CC[C@]314
Activity (Mus musculus [24]): inactive

COC(=O)/C=C/C(=O)N[C@@H]1CC[C@@]2(O)[C@H]3Cc4ccc(O)c5c4[C@@]2(CCN3CC2CC2)[C@H]1O5
Activity (Mus musculus [24]): inactive

CC(C)C[C@H](NC(=O)[C@H](Cc1ccccc1)NC(=O)[C@H](C)N(C)C(=O)[C@@H]1CCCN1C(=O)[C@H](N)CC(N)=O)C(=O)N[C@@H](Cc1ccccc1)C(=O)N[C@@H](CCC(N)=O)C(=O)N1CCC[C@H]1C(=O)N[C@@H](CCC(N)=O)C(=O)N[C@@H](CCCNC(=N)N)C(=O)N[C@@H](Cc1ccccc1)C(N)=O
Activity (Mus musculus [2]): inactive | Activity (Mus musculus [7]): Dose-dependent effect | ED50 (Mus musculus [7]): 26.2 nmol | Activity (Mus musculus [9]): inactive

CN1CC[C@]23c4c5ccc(O)c4O[C@H]2[C@@H](O)C=C[C@H]3[C@H]1C5 [MORPHINE]
Activity (Mus musculus [2]): Active | MPE (Mus musculus [25]): 6.67% | Activity (Mus musculus [26]): Active | Activity (Mus musculus [7]): Dose-dependent effect | ED50 (Mus musculus [7]): 0.44 nmol | Activity [8]: Toxic | Activity (Mus musculus [9]): inactive | Activity (Mus musculus [27]): inactive | MPE (Mus musculus [28]): 9.88%

NC(=O)[C@H](Cc1ccccc1)NC(=O)[C@H](Cc1ccccc1)NC(=O)[C@@H]1CCCN1C(=O)[C@@H](N)Cc1ccc(O)cc1 [ENDOMORPHIN 2]
Activity [29]: Non-Toxic | Emax (Mu-type opioid receptor): 76.8% | Activity (N2a): 16.49% | ED50 (Mus musculus [30]): 6.88 nmol

Oc1ccc2c3c1O[C@H]1c4[nH]c5c(c4C[C@@]4(O)[C@@H](C2)N(CC2CC2)CC[C@]314)C[C@@]1(O)[C@H]2Cc3ccc(O)c4c3[C@@]1(CCN2CC1CC1)[C@H]5O4
Activity (Mus musculus [24]): inactive

NC(=O)[C@H](Cc1ccccc1)NC(=O)[C@H](CCCN=C(N)N)NC(=O)C12CC3CC(CC(C3)C1)C2
IC50 [11]: 410 nM | Activity (N2a): 12.41% | IC50 [22]: 410 nM

N=C(N)NCCC[C@H](NC(=O)C12CC3CC(CC(C3)C1)C2)C(=O)N[C@@H](Cc1ccccc1)C(=O)NCCCC[C@H](NC(=O)[C@H](Cc1ccccc1)NC(=O)[C@H](Cc1ccccc1)NC(=O)[C@@H]1CCCN1C(=O)[C@@H](N)Cc1ccc(O)cc1)C(N)=O (H-YPFFK([Phe-Arg-Adamantane1carbonyl])-NH2)
Emax [1]: 55.9% | EC50 ([1]; read-out: EC50): 2240 nM | EC50 ([1]; read-out: pEC50 (converted)): 2000 nM | Activity (Mus musculus [2]): inactive | Emax [3]: 50.9% | Activity [5]: Non-Toxic | Activity (Mus musculus [7]): Dose-dependent effect | ED50 (Mus musculus [7]): 9.25 nmol | Activity [8]: Non-Toxic | Activity (Mus musculus [9]): inactive | EC50 [10]: 170 nM | Emax [10]: 26.6% | inhibition [10]: Dose-dependent effect | IC50 [11]: 520 nM | EC50 (Mu-type opioid receptor): 1770 nM | Emax (Mu-type opioid receptor): 54.3% | Activity (N2a): 11.88% | pEC50 [12]: inactive | Activity (Mus musculus [13]): inactive | Emax [15]: inactive | pEC50 [15]: inactive | ED50 (Mus musculus [16]): 6.27 nmol | Activity (Mus musculus [17]): Active | Activity (Mus musculus [18]): Active | Activity [19]: 10.3% | Activity [20]: Non-Toxic | Activity (Mus musculus [21]): Active | IC50 [22]: 520 nM | inhibition [22]: Dose-dependent effect | Activity [23]: Non-Toxic

C=CCN1CC[C@]23c4c5ccc(O)c4O[C@H]2C(=O)CC[C@@]3(O)[C@H]1C5
Activity (Mus musculus [31]): inactive

N=C(N)NCCC[C@H](NC(=O)C12CC3CC(CC(C3)C1)C2)C(=O)N[C@@H](Cc1ccccc1)C(N)=O
Activity (Mus musculus [24]): inactive | Activity [19]: 12.9% | inhibition [22]: Dose-dependent effect
